Patent US20130064821A1, “METHODS AND COMPOSITIONS FOR TREATING PROSTATE CANCER” (priority 2007, published 2013)

Key:
[1] = test system: LNCaP cells, secreted PSA; experiment: PSA production and secretion study in LNCaP cells (Example 6, PSA ELISA); assay type: cell-based, human; settings: 0.1 nM DHT, 120 hours, versus 5% CSS media alone
Experimental: A human hormone sensitive prostate cancer cell line, LNCaP (ATCC), was exposed to a polypeptide as described in Example 1. The effects of the polypeptide on the production and secretion of the prostate specific antigen, PSA, was then assessed.
The human prostate cancer cell line, LNCaP was obtained from American Type Tissue Collection (ATCC) and was routinely cultured in growth medium containing phenol red RPMI 1640 (Invitrogen, Auckland, New Zealand) supplemented with 10% fetal bovine serum (FBS, 15 GIBCO) and 1% antibiotic/antimycotic mixture (Invitrogen, Auckland, New Zealand). Cells were maintained at 37° C. in 5% CO2. Dilutions were made for the polypeptide (20 ng/ml) in 5% charcoal strip serum (CSS, HyClone) for in vitro experiments.
3×10^3 LNCaP cells were plated per well in quadruplicate in a Falcon 96-well plate and allowed to attach overnight at 5% CO2/37° C. in growth medium (as indicated above). The medium was replaced with fresh complete growth medium after 36 hours. […] After 120 hours in culture, cell culture media was collected from each well and PSA reading was measured in duplicate for each well. Human PSA was measured according to the manufacturers methodology using the PSA ELISA from Diagnostic Systems Laboratories (cat number: DSL-10-9700).
Data are presented as means unless otherwise indicated. Error bars represent the 95% confidence intervals.

[2] = test system: LNCaP cells, secreted PSA; experiment: PSA production and secretion study in LNCaP cells with T and DHT (Example 7, PSA ELISA); assay type: cell-based, human; settings: 0.1 nM androgen, 120 hours, versus 5% CSS media alone, mean of 6 wells
Experimental: The effects of the polypeptide on the production and secretion of the prostate specific antigen, PSA, was then assessed.
The human prostate cancer cell line, LNCaP was obtained from American Type Tissue Collection (ATCC) and was routinely cultured in growth medium containing phenol red RPMI 1640 (Invitrogen, Auckland, New Zealand) supplemented with 10% fetal bovine serum (FBS, GIBCO) and 1% antibiotic/antimycotic mixture (Invitrogen, Auckland, New Zealand). Cells were maintained at 37° C. in 5% CO2. Dilutions were made for the polypeptide (20 ng/ml) in 5% charcoal strip serum (CSS, HyClone) for in vitro experiments.
3×10^3 LNCaP cells were plated per well in quadruplicate in a Falcon 96-well plate and allowed to attach overnight at 5% CO2/37° C. in growth medium (as indicated above). The medium was replaced with fresh complete growth medium after 36 hours. […] After 120 hours in culture, cell culture media was collected from each well and a PSA reading was measured in duplicate for each well. Human PSA was measured according to the manufacturers methodology using the PSA ELISA from Diagnostic Systems Laboratories (Cat number: DSL-10-9700).
Data are presented as means unless otherwise indicated.

[3] = molecular target: T1, sex hormone binding globulin (SHBG) (Homo sapiens, UniProt P04278); settings: serum, men; cited from earlier work
T1 sequence (P04278 30-402): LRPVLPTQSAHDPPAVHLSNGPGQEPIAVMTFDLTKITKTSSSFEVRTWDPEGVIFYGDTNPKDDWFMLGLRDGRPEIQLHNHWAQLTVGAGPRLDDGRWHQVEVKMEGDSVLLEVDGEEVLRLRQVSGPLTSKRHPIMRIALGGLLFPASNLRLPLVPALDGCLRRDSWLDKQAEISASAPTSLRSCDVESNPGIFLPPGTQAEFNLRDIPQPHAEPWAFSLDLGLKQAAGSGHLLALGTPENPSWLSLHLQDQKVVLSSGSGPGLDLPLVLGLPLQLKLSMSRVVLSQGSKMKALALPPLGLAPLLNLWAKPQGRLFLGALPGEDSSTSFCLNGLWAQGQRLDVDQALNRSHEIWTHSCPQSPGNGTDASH

albumin = albumin (Homo sapiens, UniProt P02768); settings: serum, men; cited from earlier work
Chain of albumin (P02768 25-609): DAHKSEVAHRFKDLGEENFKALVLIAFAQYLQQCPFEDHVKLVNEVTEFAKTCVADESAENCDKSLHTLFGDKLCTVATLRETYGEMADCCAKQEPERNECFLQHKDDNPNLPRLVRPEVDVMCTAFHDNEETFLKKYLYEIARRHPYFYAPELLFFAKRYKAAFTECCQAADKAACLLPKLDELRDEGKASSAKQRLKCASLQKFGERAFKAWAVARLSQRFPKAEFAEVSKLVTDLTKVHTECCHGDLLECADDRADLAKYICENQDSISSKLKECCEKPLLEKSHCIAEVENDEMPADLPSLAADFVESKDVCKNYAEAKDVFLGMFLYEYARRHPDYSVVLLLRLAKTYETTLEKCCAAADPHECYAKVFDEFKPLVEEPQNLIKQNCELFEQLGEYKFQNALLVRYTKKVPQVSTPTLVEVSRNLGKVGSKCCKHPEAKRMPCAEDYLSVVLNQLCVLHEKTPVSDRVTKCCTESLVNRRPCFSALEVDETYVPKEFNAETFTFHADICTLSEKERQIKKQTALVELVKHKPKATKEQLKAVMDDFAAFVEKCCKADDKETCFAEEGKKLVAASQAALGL

LNCaP cells = experiment: In vitro growth proliferation study of LNCaP cells, calcein fluorescence assay; assay type: cell-based, human; settings: nilutamide 0.1 μM, 5 days (120 hours), mean of six wells
Experimental: A human hormone sensitive prostate cancer cell line, LNCaP1 was exposed to the AR-LBD-IgG1 FC fusion protein as described in Example 1. The effects of the polypeptide on the growth and proliferation of the cells was then assessed.
In addition, LNCaP cells were also cultured in the presence of the non-steroidal antiandrogen nilutamide
The human prostate cancer cell line, LNCaP was obtained from American Type Tissue Collection (ATCC) and was routinely cultured in growth medium containing phenol red RPM1 1640 (Invitrogen, Auckland, New Zealand) supplemented with 10% fetal bovine serum (FBS1 G1BCO) and 1% antibiotic/antimycotic miyture (Invitrogen, Auckland, New Zealand). Cells were maintained at 37° C. in 5% CO2.
2×10^3 LNCaP cells were plated per well in a Falcon 96-well plate in 5% CO2/37° C. in growth medium in growth medium containing phenol red RPMI 1640 (Invitrogen, Auckland, New Zealand) supplemented with 10% fetal bovine serum (FBS, G1BCO) and 1% antibiotic/antimycotic mixture (Invitrogen, Auckland, New Zealand). Cells were treated with either AR-LBD IgG1 Fc fusion protein (12 ng/ml ) or IgG1 Fc control protein (12 ng/ml). […] Calcein positive cells were detected using a FLUOstar OPTIMA plate reader (BMG Labtech, Victoria, Australia). […]

Structure (SMILES) | effect of androgen on secreted PSA [1] | effect of androgen on secreted PSA [2] | association constant (Ka) with SHBG [3] | association constant (Ka) with albumin (albumin) | reduction of prostate cancer cell proliferation (LNCaP cells) [%]
C[C@]12CCC(=O)C[C@@H]1CC[C@@H]1[C@@H]2CC[C@]2(C)[C@@H](O)CC[C@@H]12 [DHT, dihydrotestosterone] | significantly boost production of secreted PSA | strongly boost production of secreted PSA |  |  | 
C[C@]12CC[C@H]3[C@@H](CCC4=CC(=O)CC[C@@]43C)[C@@H]1CC[C@@H]2O [Testosterone, testosterone] |  | clearly increase production of PSA | about 1×10^9 L/mol | about 3×10^4 L/mol | 
CC1(C)NC(=O)N(c2ccc([N+](=O)[O-])c(C(F)(F)F)c2)C1=O [nilutamide] |  |  |  |  | 80
